Row | SMILES | melting point [°C]
1 | CCOC(=O)c1cn(C2CC2)c2c(CSCC)c(N3CCOCC3)c(F)cc2c1=O | 165 to 167
2 | CCOP(=O)(/C=C/c1cn(-c2ccccc2)nc1OCc1ccc(OCc2nc(N3CCOCC3)sc2C)c(OC)c1)OCC | 88 to 90
3 | CCOC(=O)C(C)(C)Oc1ccc(CNc2ccccn2)cc1 | 78 to 79
4 | C[C@H](N)Cn1ncc2ccc3oc(C(=O)NCC(C)(C)CO)cc3c21 | 103
5 | COc1cc(-n2cccn2)ncn1 | 108 to 109
6 | COC(=O)c1cc(OC)c(Cl)cc1N | 63 to 64
7 | COc1nc(C(=O)O)ccc1C#N | 235 to 237
8 | CCOc1cc(CCCOc2c(C)cc(-c3noc(C4CC4)n3)cc2C)on1 | 70 to 71
9 | CC(=O)c1cccc(C)c1NC(=O)CCBr | 99 to 101
10 | CCC(=CC(CNC(=O)c1ccc(NS(C)(=O)=O)nc1)=NO)C(C)[N+](=O)[O-] (configuration not stated) | 131 to 136
11 | CCC1(O)CC(=O)OCc2c1cc1n(c2=O)Cc2cc3ccc(F)cc3nc2-1 (configuration not stated) | > 250
12 | COC(=O)c1ccc2c(c1)CN(c1c(F)cc3c(=O)c(C(=O)O)cn4c3c1OCC4C)C2 (configuration not stated) | 257 to 262
13 | N#CSCCNc1ccc(C(F)(F)F)cc1[N+](=O)[O-] | 115 to 117
14 | COC(=O)CCCCCCCCN1C(=O)C(c2ccccc2)N(c2ccccc2)C1=O (configuration not stated) | 69 to 72
15 | CCN(CC)C(=O)C=Cc1cccc([N+](=O)[O-])c1C | 74.3
16 | Cc1c(Nc2ncc(Br)cc2C(=O)O)cccc1C(F)(F)F | 222 to 224
17 | CCC(NC(=O)c1ccccc1)C(=O)OC1CCCCC1 (configuration not stated) | 60 to 63
18 | O=c1[nH][nH]c(=O)n1-c1c(F)c(F)c(F)c(F)c1F | 180 to 182
19 | N#Cc1ccc(-c2cc(F)c(F)c(OC3SCC(O)C(O)C3O)c2)cn1 (configuration not stated) | 173
20 | CSc1c(SC)c(OC(C)=O)c2cc(Cl)ccc2c1OC(C)=O | 113 to 114
21 | CC1(C)CC(=O)C(F)C(C)(C)C1 (configuration not stated) | 27 to 31
22 | C=C(C)c1csc(SC)c1 | 71 to 73
23 | Cc1nc(N2CCc3ccccc3CC2)c(C#N)c(=O)n1CC#N | > 200
24 | O=C(OCc1ccccc1)N1CCN(c2cc(=O)[nH]cn2)CC1 | 247 to 249
25 | O=[N+]([O-])c1cccc(SC(CCl)S(=O)(=O)c2cccc([N+](=O)[O-])c2)c1 (configuration not stated) | 98 to 110
26 | CC(C)(C)c1cc(C=Nn2ccnc2N2CCOCC2)cc(C(C)(C)C)c1O | 185 to 187
27 | CNC(=O)C1SCSC(=NO)S1 (configuration not stated) | 129 to 130

Row | SMILES | melting point [°C]
28 | O=C(C1CCC(Nc2ncc3ncnc(Nc4ccc(F)c(Cl)c4)c3n2)CC1)N1CCNCC1 (configuration not stated) | 178 to 182
29 | CCc1c(Sc2cc(Cl)cc(Cl)c2)c(CC#N)nn1CCO | 84 to 85
30 | COc1cc2c(Nc3ccc(Sc4nccn4C)c(Cl)c3)c(C#N)cnc2cc1N1CCC(N2CCCC2)CC1 | 225 to 229
31 | O=[N+]([O-])c1ccnc(N2CCNCC2)c1 | 92 to 93
32 | CCOC(=O)c1cc2c(C)ccc3c2n1CCC3=O | 103 to 104
33 | CCCCC1=NC(Cl)(COC)CN1Cc1ccc(C(=O)O)cc1 (configuration not stated) | 126 to 128
34 | COC(=O)C1CC(C(CC(O)C(CC2CCCCC2)NC(=O)C(Cc2c[nH]cn2)NC(=O)C(Cc2ccccc2)NC(=O)OC(C)(C)C)C(C)C)OC1=O (configuration not stated) | 95
35 | O=Cc1cc([N+](=O)[O-])cc(O)c1O | 226 to 228
36 | CC(C)(C)OC(=O)N1CCCCN1C(=O)OCc1ccccc1 | 71 to 72
37 | Cc1ccc([N+](=O)[O-])c2c1CCC(C)O2 (configuration not stated) | 83 to 85
38 | COc1cc2c(c3oc(C(=O)O)cc(=O)c13)CCC(C)(C)O2 | 225 to 226
39 | COc1nc(NC(=O)NS(=O)(=O)c2cscc2C)nc(OC)n1 | 154 to 156
40 | C=C(COC(=O)CCCCCCBr)COC(=O)NCCCCCCCCCCCCCCCCCC | 49
41 | CCOC(=O)C(=O)c1cc(F)cc2cccnc12 | 114 to 117
42 | O=C1OCN(C(=O)OCc2ccccc2)[C@H]1CCCl | 75 to 77
43 | CCOCc1cc2cccc(OC)c2oc1=O | 131 to 133
44 | CCCCn1c(=O)n(C)c(=O)c2nn(S(=O)(=O)CCCCl)cc21 | 105 to 106
45 | CCCCc1ccccc1C1C(C(=O)OCC)=C(CCC)Nc2[nH]ncc21 (configuration not stated) | 175
46 | O=S(=O)(c1cccnc1)N1CCC(Nc2nc(Nc3cccc(C(F)(F)F)c3)nc(OCC(F)(F)F)n2)CC1 | 222 to 224
47 | CNS(=O)(=O)c1sccc1C(C)=O | 101 to 103
48 | CCNC(=O)n1nc(Oc2ncc(C(F)(F)F)cc2Cl)cc1C | 85 to 86
49 | C#CCN1C(=O)COc2cc(-c3ncc(C(F)(F)F)c(C)c3Cl)c(F)cc21 | 156 to 157
50 | COC(=O)CN(CC(=O)OC)c1cccc([N+](=O)[O-])c1 | 54 to 57
51 | Cc1cc(Oc2c(Cl)cc(C(F)(F)F)cc2Cl)nn1C(=O)NCCCl | 116 to 118
52 | CCCOC(=O)Nc1cccc(NC(=O)C=C(C)OC)c1 | 115
53 | CC(C)(C)c1cc(Br)c(C(C)(C)C)cc1N | 89 to 90

Now from value to molecule:

Row | melting point [°C] | SMILES
54 | 138 | CCCNC(=O)c1ccc2c(c1)N(C(C)COS(C)(=O)=O)c1ccccc1S2 (racemic)
55 | 190 | CCCCCCCCCCCCCCCCCCOC(=O)Nc1ccc(NC(=O)NS(=O)(=O)c2ccc(OC)cc2)cc1
56 | 167 to 168 | C#CCOc1ccc2c(c1)c(-c1ccc(C(C)C)cc1)nc(=O)n2Cc1cccc([N+](=O)[O-])c1
57 | 164 to 165 | C=C1COc2ccc(C(=O)OC)cc2C(Cc2ccccc2)(S(=O)(=O)c2ccccc2)C1 (configuration not stated)
58 | 223 to 226 | CCCC(O)c1cc2c(=O)n(NS(C)(=O)=O)c(=O)[nH]c2cc1C(F)(F)F (configuration not stated)
59 | 95 to 99 | CC(=O)c1ccc(Oc2ccc(Cl)c3ccccc23)cc1
60 | 246 to 249 | COc1cc2nc(N)nc(-c3cccc(Br)c3)c2cc1OC
61 | 80 to 81 | CCCCOC(=O)COc1cc(F)ccc1C(=O)NCc1cccc([N+](=O)[O-])c1
62 | 167 to 168 | CN1CCN(Cc2ccc3c(=O)n(CCCCN4CC=C(c5ccccc5)CC4)c(=O)[nH]c3c2)CC1
63 | 162 to 164 | CC(=Cc1ccc2ccc3cccc4ccc1c2c34)c1ccc(Cl)cc1
64 | 80 to 81 | CCCN(CCC)CCCCCOc1ccc2oc(-c3cccc(OC)c3)cc(=O)c2c1
65 | 172 to 174 | N#Cc1c(N2CCCCC2)cc(-c2cccs2)c2c1-c1ccccc1C2=O
66 | 189 to 190 | CCCCCS(=O)(=O)NC(=O)/C=C/c1ccc(C)n1Cc1ccc(Cl)cc1Cl
67 | 189 to 191 | COc1ccc(/C=C/C(=O)Nc2ccccc2C(=O)NCc2cn(CC(=O)Nc3ccccc3)nn2)cc1OC
68 | 128 to 129 | CCCCOCCOc1ccc(-c2cc(/C=C/C(=O)O)c3c(c2)CCCN3C)cc1
69 | 95 to 97 | CCOC(=O)C(=O)c1ccc(OCCCn2c(=O)c3ccccc3c3ccccc32)cc1
70 | 170 | CCCCNC(=O)COC1c2ccccc2C(=O)N1c1ccc2ccc(OC)nc2n1 (configuration not stated)
71 | 104 to 106 | CN1C(=O)C(c2cccc(-c3cccnc3F)c2)(c2cnn(CC(F)(F)F)c2)N=C1N (configuration not stated)
72 | 113 | CCc1csc(-c2ccc(OCCC3CCN(c4ccc(C)nn4)CC3)cc2)n1
73 | 150 to 157 | Cc1noc(C)c1S(=O)(=O)Nc1ccc2c(c1)S(=O)(=O)C=C(c1c(O)c3cc(F)ccc3n(CCC3CC3)c1=O)N2
74 | 151 to 152 | Cc1oc(-c2ccccc2)nc1CCOc1ccc(CCC2SC(=O)NC2=O)cc1 (configuration not stated)
75 | 136 to 138 | Cc1c(C=O)cc(-c2ccc(S(C)(=O)=O)cc2)n1-c1ccc(F)cc1

Row | melting point [°C] | SMILES
76 | 146 to 152 | Cn1c(SCCCN2CCc3ccc(C(=O)c4ccccc4)cc3C2)nnc1-c1ccccc1
77 | 228 to 229 | CCCCOc1cc(C(=O)O)cc(S(N)(=O)=O)c1Cc1ccccc1
78 | 101 to 102 | O=C(NCCCO)c1cccc(-c2cccc(Oc3cc(Cl)cc(Cl)c3)n2)c1
79 | 188 to 189 | CC(C)(CO)COc1ccc(NC(=O)c2cc3ccccc3s2)cc1C#N
80 | 180 to 181 | Fc1cccc(F)c1-c1ncc(-c2ccc(Br)cc2)nn1
81 | 98 to 101 | COC(=O)C(CCSC)NC(=O)c1ccc([N+](=O)[O-])cc1-c1ccccc1 (configuration not stated)
82 | 180 | O=C1CN(c2ccc(CC3NC(=O)c4ccccc4NC3=O)cc2O)S(=O)(=O)N1 (configuration not stated)
83 | 177 to 179 | CS(=O)(=O)c1ccc(-c2cnn(CC(F)(F)F)c(=O)c2-c2ccc(F)cc2)cc1
84 | 141 to 142 | Cc1ccsc1C(=O)Nc1ccc(I)cc1
85 | 109 to 111 | COc1ccc2[nH]c(S(=O)Cc3cc(N4CCOCC4)c(F)cn3)nc2c1 (configuration not stated)
86 | 246 | O=c1[nH]c2ccc(C(c3ccc(Cl)cc3)n3ccnc3-c3ccccc3)cc2c(Oc2cccc(Cl)c2)c1CO (configuration not stated)
87 | 176 to 177 | CCOC(=O)C(C)(C)OC(=O)c1cc(-n2c(=O)cc(C(F)(F)F)[nH]c2=O)ccc1Cl
88 | 182 to 183 | CCC(CC)OC(=O)c1ccc(C(=O)NS(=O)(=O)c2ccccc2)cn1
89 | 193 to 194 | CCOC(=O)c1c(Cn2cncn2)nc2sc3c(c2c1-c1ccc(OC)c(OC)c1)CCN(C(=O)c1ccccc1)C3
90 | 344 to 347 | Nc1c(-c2cc(Cl)ccc2O)c2cc([N+](=O)[O-])ccc2[nH]c1=O
91 | 159 to 160 | CC1(C)CCC(C)(C)c2cc(CC#Cc3ccc(C(=O)Nc4ccc(O)cc4)cc3)ccc21
92 | 173 | Cc1ccc(-c2ccc(C(=O)Nc3ccc4cc(CN5CCCC5)cnc4c3F)c(F)c2)cc1
93 | 183 to 186 | C#CCN(Cc1ccc2nc(NC(=O)C(C)(C)C)[nH]c(=O)c2c1)c1ccc(C#N)cc1
94 | 96 to 98 | Cc1ccc(S(=O)(=O)Nc2ccccc2)cc1
95 | 222 to 223 | COc1cccc2nc(-c3ccc(OCCNC(C)C)c(-c4ccc(S(C)(=O)=O)cc4)n3)[nH]c(=O)c12
96 | 106 to 107 | COC(=O)c1c(-c2ccccc2F)c2cc(OCc3ccccc3)ccc2c(=O)n1CC(C)C
97 | 271 | O=C(O)c1ccc(CN(Cc2cc(Br)ccc2OCc2ccccc2)c2ccc(C(=O)O)cc2)cc1

Source: a melting point compilation (Tetko et al.; mined from patent text by program, amines drawn as free bases though some values may be those of a salt)
